Experimental data: ChEMBL document CHEMBL1909046, “DrugMatrix in vitro pharmacology data”

What was measured:
[1] = DRUGMATRIX: Atrial Natriuretic Factor (ANF) radioligand binding (ligand: [125I] ANF (rat)); format: cell membranes, Cavia porcellus, Dunkin-Hartley, Adrenal gland, Membrane; details: Not Active = under 50% inhibition at 10 µM
[2] = target: T1, B2 bradykinin receptor (Homo sapiens, UniProt P30411); format: cell membranes, Membrane; details: chem-1; further: in other assays of this panel Not Active means under 50% inhibition at 10 µM
T1 sequence (P30411 whole entry): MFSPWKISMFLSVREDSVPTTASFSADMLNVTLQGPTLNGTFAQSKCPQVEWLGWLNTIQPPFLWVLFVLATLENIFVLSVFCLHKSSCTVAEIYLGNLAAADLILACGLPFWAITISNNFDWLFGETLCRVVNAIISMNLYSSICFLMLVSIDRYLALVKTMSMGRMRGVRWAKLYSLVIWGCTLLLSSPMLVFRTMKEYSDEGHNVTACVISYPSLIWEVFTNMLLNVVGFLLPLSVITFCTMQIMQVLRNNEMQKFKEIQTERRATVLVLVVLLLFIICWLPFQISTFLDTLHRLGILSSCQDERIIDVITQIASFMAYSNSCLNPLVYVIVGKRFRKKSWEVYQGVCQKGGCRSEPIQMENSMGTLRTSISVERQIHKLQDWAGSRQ

[3] = target: T2, Vasoactive intestinal polypeptide receptor 1 (Homo sapiens, UniProt P32241); format: cell membranes, Membrane; details: ht-29; further: in other assays of this panel Not Active means under 50% inhibition at 10 µM
T2 sequence (P32241 whole entry): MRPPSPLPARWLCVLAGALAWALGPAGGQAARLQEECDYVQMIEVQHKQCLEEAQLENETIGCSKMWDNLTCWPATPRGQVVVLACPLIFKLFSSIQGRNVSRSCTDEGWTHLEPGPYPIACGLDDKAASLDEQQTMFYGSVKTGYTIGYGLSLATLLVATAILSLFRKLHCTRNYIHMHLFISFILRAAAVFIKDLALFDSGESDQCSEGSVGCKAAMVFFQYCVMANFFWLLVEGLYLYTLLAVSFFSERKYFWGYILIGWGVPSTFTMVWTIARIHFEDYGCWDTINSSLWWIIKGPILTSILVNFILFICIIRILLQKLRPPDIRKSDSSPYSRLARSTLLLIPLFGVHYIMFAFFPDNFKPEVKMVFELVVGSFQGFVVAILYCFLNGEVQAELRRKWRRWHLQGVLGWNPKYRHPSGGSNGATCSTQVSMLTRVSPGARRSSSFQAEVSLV

[4] = target: T3, Cholecystokinin receptor type A (Homo sapiens, UniProt P32238); format: cell membranes, Membrane; details: 1321-n1; further: in other assays of this panel Not Active means under 50% inhibition at 10 µM
T3 sequence (P32238 whole entry): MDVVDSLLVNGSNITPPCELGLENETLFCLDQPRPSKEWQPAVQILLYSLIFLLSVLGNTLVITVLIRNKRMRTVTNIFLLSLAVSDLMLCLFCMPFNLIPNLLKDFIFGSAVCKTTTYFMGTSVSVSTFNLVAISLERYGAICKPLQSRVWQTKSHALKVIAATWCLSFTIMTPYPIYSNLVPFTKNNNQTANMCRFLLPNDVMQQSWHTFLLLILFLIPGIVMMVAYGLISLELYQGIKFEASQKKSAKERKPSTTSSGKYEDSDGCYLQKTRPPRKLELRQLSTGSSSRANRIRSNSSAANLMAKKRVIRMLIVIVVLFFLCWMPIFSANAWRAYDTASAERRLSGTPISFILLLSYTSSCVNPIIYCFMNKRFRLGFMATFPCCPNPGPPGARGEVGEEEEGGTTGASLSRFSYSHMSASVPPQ

[5] = target: T4, Muscarinic acetylcholine receptor M4 (Homo sapiens, UniProt P08173); format: cell membranes, CHO-K1, Membrane; details: cho-k1; further: in other assays of this panel Not Active means under 50% inhibition at 10 µM
T4 sequence (P08173 whole entry): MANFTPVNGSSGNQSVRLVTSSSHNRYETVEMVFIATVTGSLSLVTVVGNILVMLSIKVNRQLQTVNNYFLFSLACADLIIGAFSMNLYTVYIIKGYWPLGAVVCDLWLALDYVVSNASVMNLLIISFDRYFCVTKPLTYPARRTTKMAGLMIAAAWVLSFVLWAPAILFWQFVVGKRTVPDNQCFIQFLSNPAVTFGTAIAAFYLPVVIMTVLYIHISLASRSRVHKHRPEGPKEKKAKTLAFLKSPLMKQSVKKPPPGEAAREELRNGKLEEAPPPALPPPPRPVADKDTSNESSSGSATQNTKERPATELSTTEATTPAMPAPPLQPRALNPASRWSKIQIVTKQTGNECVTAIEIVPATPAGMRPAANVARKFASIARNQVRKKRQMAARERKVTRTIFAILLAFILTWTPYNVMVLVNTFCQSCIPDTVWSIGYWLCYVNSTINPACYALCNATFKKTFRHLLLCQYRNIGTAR

[6] = target: T5, Progesterone receptor (Bos taurus, UniProt Q690N0); test: DRUGMATRIX: Progesterone radioligand binding (ligand: [3H] R-5020); format: tissue-based, Uterus; details: Not Active = under 50% inhibition at 10 µM
T5 sequence (Q690N0 whole entry): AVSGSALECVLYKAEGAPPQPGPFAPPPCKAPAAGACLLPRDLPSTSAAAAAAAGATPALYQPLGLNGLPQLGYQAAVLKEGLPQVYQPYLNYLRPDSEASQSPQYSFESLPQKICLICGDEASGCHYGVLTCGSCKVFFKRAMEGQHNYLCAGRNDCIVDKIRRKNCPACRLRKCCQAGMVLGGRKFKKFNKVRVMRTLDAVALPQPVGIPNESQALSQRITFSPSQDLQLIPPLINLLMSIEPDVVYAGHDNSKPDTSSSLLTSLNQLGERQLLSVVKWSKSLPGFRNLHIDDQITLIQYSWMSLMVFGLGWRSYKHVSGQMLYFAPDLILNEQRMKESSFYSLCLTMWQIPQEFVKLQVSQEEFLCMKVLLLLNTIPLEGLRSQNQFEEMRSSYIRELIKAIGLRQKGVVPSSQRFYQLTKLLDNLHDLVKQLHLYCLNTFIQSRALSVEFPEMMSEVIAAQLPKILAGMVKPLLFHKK

[7] = target: Cytochrome P450 2D6 (Homo sapiens, UniProt P10635); details: bti-tn-5b1-4; further: in other assays of this panel Not Active means under 50% inhibition at 10 µM
Chain of Cytochrome P450 2D6 (P10635 whole entry): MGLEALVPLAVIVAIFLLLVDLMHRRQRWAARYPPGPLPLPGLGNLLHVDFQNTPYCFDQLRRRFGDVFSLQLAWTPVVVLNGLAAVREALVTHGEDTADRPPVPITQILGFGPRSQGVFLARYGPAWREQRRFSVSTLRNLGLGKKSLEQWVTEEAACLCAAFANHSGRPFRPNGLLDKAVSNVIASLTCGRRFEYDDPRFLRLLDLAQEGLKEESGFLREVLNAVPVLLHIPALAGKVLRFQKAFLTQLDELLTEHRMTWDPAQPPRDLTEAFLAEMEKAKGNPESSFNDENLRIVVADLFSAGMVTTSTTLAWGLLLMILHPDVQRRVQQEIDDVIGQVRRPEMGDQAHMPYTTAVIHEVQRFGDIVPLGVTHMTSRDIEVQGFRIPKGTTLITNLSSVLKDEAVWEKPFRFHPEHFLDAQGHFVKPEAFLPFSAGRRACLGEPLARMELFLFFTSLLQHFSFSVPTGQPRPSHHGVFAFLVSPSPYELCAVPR

CC(C)NCC(O)c1ccc(NS(C)(=O)=O)cc1 (stereo not drawn) [SOTALOL]
Not Active: IC50 [1] | Ki [1] | IC50 [2] | IC50 [3] | IC50 [4] | IC50 [5] | IC50 [6] | IC50 [7] | Ki [7]

MANGANESE CHLORIDE ANHYDROUS
Not Active: IC50 [1] | Ki [1] | IC50 [2] | Ki [2] | IC50 [3] | Ki [3] | IC50 [4] | Ki [4] | IC50 [5] | Ki [5] | IC50 [6] | Ki [6] | IC50 [7] | Ki [7]

O.O.O.O.O.O.[Cl-].[Cl-].[Sr+2] [STRONTIUM CHLORIDE HEXAHYDRATE]
Not Active: IC50 [1] | Ki [1] | IC50 [2] | IC50 [3] | IC50 [4] | IC50 [5] | IC50 [6] | IC50 [7] | Ki [7]

Nc1cc(N2CCCCC2)nc(N)[n+]1[O-] [MINOXIDIL]
Not Active: IC50 [1] | Ki [1] | IC50 [2] | IC50 [3] | IC50 [4] | IC50 [5] | IC50 [6] | IC50 [7] | Ki [7]

CO[C@H]1/C=C/O[C@@]2(C)Oc3c(C)c(O)c4c(O)c(c(/C=N/N5CCN(C6CCCC6)CC5)c(O)c4c3C2=O)NC(=O)/C(C)=C\C=C\[C@H](C)[C@H](O)[C@@H](C)[C@@H](O)[C@@H](C)[C@H](OC(C)=O)[C@@H]1C [RIFAPENTINE]
Not Active: IC50 [1] | Ki [1] | IC50 [2] | IC50 [3] | IC50 [4] | IC50 [5] | IC50 [6] | IC50 [7] | Ki [7]

Cc1cccc(C)c1OCC(C)N (stereo not drawn) [MEXILETINE]
Not Active: IC50 [1] | Ki [1] | IC50 [2] | IC50 [3] | IC50 [4] | IC50 [5] | IC50 [6] | IC50 [7] | Ki [7]

COc1c2occc2cc2ccc(=O)oc12 [METHOXSALEN]
Not Active: IC50 [1] | Ki [1] | IC50 [2] | IC50 [3] | IC50 [4] | IC50 [5] | IC50 [6] | IC50 [7] | Ki [7]

CC(c1cc2ccccc2s1)N(O)C(N)=O (stereo not drawn) [ZILEUTON]
Not Active: IC50 [1] | Ki [1] | IC50 [2] | IC50 [3] | IC50 [4] | IC50 [5] | IC50 [6] | IC50 [7] | Ki [7]

O=C1C(CC[S+]([O-])c2ccccc2)C(=O)N(c2ccccc2)N1c1ccccc1 (stereo not drawn) [SULFINPYRAZONE]
Not Active: IC50 [1] | Ki [1] | IC50 [2] | IC50 [3] | IC50 [4] | IC50 [5] | IC50 [6] | IC50 [7] | Ki [7]

CCN1CCC[C@H]1CNC(=O)c1cc(S(N)(=O)=O)ccc1OC [LEVOSULPIRIDE]
Not Active: IC50 [1] | Ki [1] | IC50 [2] | IC50 [3] | IC50 [4] | IC50 [5] | IC50 [6] | IC50 [7] | Ki [7]

CCN(CC)CCNC(=O)c1cc(S(C)(=O)=O)ccc1OC [TIAPRIDE]
Not Active: IC50 [1] | Ki [1] | IC50 [2] | IC50 [3] | IC50 [4] | IC50 [5] | IC50 [6] | IC50 [7] | Ki [7]

CCCCOc1cc(CC2CNC(=O)N2)ccc1OC (stereo not drawn) [RO-201724]
Not Active: IC50 [1] | Ki [1] | IC50 [2] | IC50 [3] | IC50 [4] | IC50 [5] | IC50 [6] | IC50 [7] | Ki [7]
